Experiments:
MIA PaCa-2 = test: Cytotoxicity against human MIAPaCa2 cells after 24 hrs by MTT assay; assay type: functional, cell-based; conditions: MIA PaCa-2, 24 h
[1] = Cytotoxicity against human MV-3 cells after 24 hrs by MTT assay; assay type: functional, cell-based; conditions: MV-3, 24 h

`CC(C)C1=C(O)C(=O)C2=C(C(=O)C[C@H]3C(C)(C)CCC[C@]23C)C1=O` gave an IC50 (MIA PaCa-2) of 30.1 µM and an IC50 [1] of 65.8 µM.
With `CCO[C@@H]1C[C@H]2C(C)(C)CCC[C@]2(C)C2=C1C(=O)C(C(C)C)=C(O)C2=O` the IC50 (MIA PaCa-2) was greater than 100 µM and the IC50 [1] was greater than 80 µM.
For `COc1c(O)c(C(C)C)cc2c1[C@@]1(C)CCCC(C)(C)[C@@H]1CC2=O`, the IC50 (MIA PaCa-2) was 34.9 µM and the IC50 [1] was 32.3 µM.
For `CC1=CCCc2c1ccc1c2C(=O)C(=O)c2c(C)coc2-1`, the IC50 (MIA PaCa-2) was 5.6 µM.
`CC(C)C1=Cc2ccc3c(c2C(=O)C1=O)C(=O)CCC3(C)C` showed an IC50 (MIA PaCa-2) of 29.9 µM.
With `CC(=O)O[C@@H]1C[C@H]2C(C)(C)CCC[C@]2(C)C2=C1C(=O)C(C(C)C)=C(O)C2=O` the IC50 (MIA PaCa-2) was 4.7 µM and the IC50 [1] was 7.4 µM.
With `CC[C@@]1(O)C(=O)OCc2c1cc1n(c2=O)Cc2cc3ccccc3nc2-1` [CAMPTOTHECIN] the IC50 (MIA PaCa-2) was 0.4 µM.
For `COc1c(C(C)C)cc2c(c1O)[C@@]1(C)CCCC(C)(C)[C@@H]1CC2=O` [CRYPTOJAPONOL], the IC50 (MIA PaCa-2) was greater than 100 µM and the IC50 [1] was greater than 80 µM.
For `C[C@H]1COC2=C1C(=O)C(=O)c1c2ccc2c1CCCC2(C)C` [CRYPTOTANSHINONE], the IC50 (MIA PaCa-2) was 5.8 µM.
In the case of `CC(C)C1=C(O)C(=O)c2c(ccc3c2CCCC3(C)C)C1=O` [DEOXYNEOCRYPTOTANSHINONE], the IC50 (MIA PaCa-2) is reported as greater than 100 µM and the IC50 [1] is reported as greater than 150 µM.
With `CC(C)c1cc2c(cc1O)[C@@]1(C)CCCC(C)(C)[C@@H]1CC2` [FERRUGINOL] the IC50 (MIA PaCa-2) was 25.9 µM.
In the case of `CC(C)C1=C(O)C(=O)C2=C(C1=O)[C@H](O)C[C@H]1C(C)(C)CCC[C@]21C` [HORMINONE], the IC50 (MIA PaCa-2) is reported as 27.5 µM and the IC50 [1] is reported as 16.7 µM.
In the case of `COc1c(C(C)C)cc2c(c1O)[C@@]1(C)CCCC(C)(C)[C@@H]1[C@@H](O)C2` [IGUESTOL], the IC50 (MIA PaCa-2) is reported as 41.3 µM and the IC50 [1] is reported as 65.9 µM.
Work on `COc1c(O)c2c(c(O)c1C(C)C)C(=O)C[C@H]1C(C)(C)CCC[C@]21C` [INUROYLEANOL] yielded an IC50 (MIA PaCa-2) greater than 80 µM and an IC50 [1] greater than 120 µM.
`CC(C)c1cc2ccc3c(c2c(O)c1O)C(=O)CCC3(C)C` [MILTIODIOL] showed an IC50 (MIA PaCa-2) of 66.3 µM.
In the case of `CC(C)C1=Cc2ccc3c(c2C(=O)C1=O)CCCC3(C)C` [MILTIRONE], the IC50 (MIA PaCa-2) is reported as 22.5 µM.
In the case of `COc1c(O)c(C(C)C)c(O)c2c1[C@@]1(C)CCCC(C)(C)[C@@H]1CC2=O` [ORTHOSIPHONOL], the IC50 (MIA PaCa-2) is reported as greater than 100 µM and the IC50 [1] is reported as greater than 80 µM.
`CC(C)C1=C(O)C(=O)C2=C(CC[C@H]3C(C)(C)CCC[C@]23C)C1=O` [ROYLEANONE] showed an IC50 (MIA PaCa-2) of 32.5 µM and an IC50 [1] greater than 80 µM.
With `CC(C)=CCCc1c(C)ccc2c1C(=O)C=C(C(C)C)C2=O` [SAHANDINONE] the IC50 (MIA PaCa-2) was 10.2 µM.
For `CC(C)c1cc2c(cc1O)[C@@]1(C)CCCC(C)(C)[C@@H]1CC2=O` [SUGIOL], the IC50 (MIA PaCa-2) was 17.9 µM and the IC50 [1] was 34.1 µM.
Molecule `Cc1coc2c1C(=O)C(=O)c1c-2ccc2c1CCCC2(C)C` [TANSHINONE IIA] has an IC50 (MIA PaCa-2) of 1.9 µM.
In the case of `Cc1coc2c1C(=O)C(=O)c1c-2ccc2c(C)cccc12` [TANSHINONE I], the IC50 (MIA PaCa-2) is reported as 10.5 µM.
